Assays:
Assay type in all cases: in vivo, mouse
[1] = test system: muscles Soleus, Plantaris and Tibialis of SMA mice; test: Histological analysis of muscle cross-sections (Hematoxylin-Eosin): number and cross-section surface of muscle fibers
Method: At P11, one hour after their last gavage, the treated mice were anaesthetized with pentobarbital 1% at 6 μL/g of mouse then the extensor muscles Soleus, with a mixed typology, extensor Plantaris, with a fast typology, and flexor Tibialis, with a fast typology, were sampled in order to conduct histological or molecular studies. After sampling, the muscles Soleus, Plantaris and Tibialis were included individually in a preservation medium then frozen in cooled isopentane. For each muscle, medial cross-sections 10 μm thick were realized. These sections were stained with Hematoxyline-Eosin, dehydrated and mounted in an inclusion medium. The images of these sections were taken with a microscope (with a magnification ×200). In order to obtain images with an impression of relief, the differential interference contrast technique was used. From these images, the number of muscle fibers of each muscle and the cross-section surface of 20% of these fibers were counted using image processing software (FIG. 2).

SMA mice = test: Open-field test (spontaneous displacement capacities)
Method: Phenotypic analyses of type 2 severe SMA mice treated or not starting from P0 with BIO101 were conducted. Longitudinally every two days, a test was conducted of the motor capacities of the mice from P5 to P9. The inventors evaluated the spontaneous displacement capacities by the open-field test, as well as the muscular fatigability by grip test, such as described hereinabove (Biondi et al., 2008; Branchu et al., 2013; Chali et al., 2016). The device used for the open-field test is different according to the age of the mice. For animals from P0 to P6, it is formed of a 15×15×5 cm plastic box with a grid pattern of the field divided into 25 3 cm×3 cm squares. For animals from P7 to P21, it is formed of a 28×28×5 cm plastic box with a grid pattern of the field divided into 16 7 cm×7 cm squares. The mice were tested individually and the evaluation device was washed after each session. Each mouse initially placed at the center of the field was able to move about freely for 5 minutes. The behavioral measurements are recorded by the experimenter during these 5 minutes and the total number of squares crossed was recorded.

[2] = test system: SMA mice (FVB/NRj-SmnΔ7/Δ7 huSMN2+/+ 2 copies); test: Phenotypic analysis: weight and survival of severe SMA mice under daily gavage
From the text: A severe SMA mouse model was used on an FVB/NRj gene pool, characterized by the invalidation of the exon 7 of the murine gene Smn and expressing 2 copies of the human transgene SMN2 (Smn^Δ7/Δ7; huSMN2^+/+) (Hsieh et al., 2000). The mice resulting from these crossings having the “FVB/NRj-Smn^Δ7/Δ7 huSMN2^+/+ 2 copies” genotype are described as “SMA”. These mice are characterized by progressive growth failure which is observed starting from 4 days post-natal and have a degeneration of about 50% of the motor neurons of the ventral horn of the spinal cord at the end of life, progressive muscular atrophy and an average lifespan of about 12 days (Hsieh et al., 2000). The mice having the “FVB/NRj-Smn^+/Δ7 huSMN2^++ 2 copies” genotype have no particular phenotype and are used as so-called “control” mice. The mice were treated via daily gavage of a dose of 50 mg/kg, either with the molecule BIO101 complexed to a vehicle (cyclodextrin in the present case), or with the vehicle alone (VH). The weight and the survival were analyzed on a daily basis until P11. In the rest of the description, n corresponds to the size of the sample and p corresponds to the “p value” used to quantify the statistical significance of a result.
The same type II murine model was used to characterize the phenotypic effects of the molecule BIO103 in a severe SMA model. The mice were treated via daily gavage of a dose of 50 mg/kg, either with the molecule BIO103 complexed with the vehicle (cyclodextrin in the present case), or with the vehicle alone (VH). The weight and the survival were analyzed on a daily basis until P11.

SMN protein = test: Western blot, level of expression of the SMN protein in SMA mice
Method: The frozen muscle Plantaris was homogenized in extraction buffer by mechanical grinding. The supernatant containing the protein extract was sampled, then the protein extracts were then dosed according to the Lowry protein assay. An electrophoresis on SDS-PAGE gel was conducted, then the separated proteins were transferred onto membranes. The primary antibodies used were the following: mouse monoclonal anti-SMN (1:5,000), rabbit polyclonal anti-Ser 473 phospho-AKT (1:1000), rabbit polyclonal anti-AKT ( 1/100), rabbit monoclonal anti phospho-ERK ½ (1:500), anti-MAP Kinase ½ (ERK ½) (1:1000). […] The optical density of each specific band was quantified with image processing software by subtracting the background and by normalizing with the optical density of the β-actin bands. For the controls treated with the vehicle, the values obtained were determined at 1 and the values of the other groups were normalized in relation to these controls and expresses as a relative quantity. […] The quantitative values of pAKT at the Plantaris represent 3 mice per group treated with the vehicle (control or SMA) and 4 mice treated with BIO101. The quantitative values of pERK at the Plantaris represent at least 4 mice per group. The quantitative values of SMN represent n=2. […]

ERK = test: Western blot, phosphorylation of ERK in SMA mice
[3] = muscle Plantaris, SMA mice treated P0 to P11

CC(C)(O)CC[C@@H](O)[C@](C)(O)[C@H]1CC[C@@]2(O)C3=CC(=O)[C@@H]4C[C@@H](O)[C@@H](O)C[C@]4(C)[C@H]3CC[C@]12C [BIO101, 20-hydroxyecdysone]
proportion of muscle fibers with cross-section surface greater than 300 μm^2 ([1]; Plantaris, FIG. 13B): increase
proportion of muscle fibers with cross-section surface less than 200 μm^2 ([1]; Plantaris, FIG. 13B): decrease
atrophy of the muscle fibers (cross-section surface) in relation to healthy control mice ([1]; Plantaris, P11, SMA mice treated P0 to P11 (SMA vehicle 46%)): 17.9%
proportion of fibers with cross-section surface between 0 and 100 μm^2 ([1]; Plantaris, versus SMA vehicle): decrease
proportion of fibers with cross-section surface between 200 and 400 μm^2 ([1]; Plantaris, versus SMA vehicle): increase
proportion of muscle fibers with cross-section surface greater than 300 μm^2 ([1]; Soleus, FIG. 13C): increase
proportion of muscle fibers with cross-section surface less than 200 μm^2 ([1]; Soleus, FIG. 13C): decrease
atrophy of the muscle fibers (cross-section surface) in relation to healthy control mice ([1]; Soleus, P11, SMA mice treated P0 to P11 (SMA vehicle 50.2%)): 37.8%
proportion of fibers with cross-section surface between 100 and 200 μm^2 ([1]; Soleus, versus SMA vehicle): decrease
proportion of fibers with cross-section surface between 200 and 400 μm^2 ([1]; Soleus, versus SMA vehicle): increase
atrophy of the muscle fibers (cross-section surface) in relation to healthy control mice ([1]; Tibialis, P11, SMA mice treated P0 to P11 (SMA vehicle 56.1%)): 32.7%
number of muscle fibers ([1]; Tibialis, SMA mice treated P0 to P11, 50 mg/kg): 2,358 fibers
increase in number of muscle fibers compared to vehicle ([1]; Tibialis, SMA mice treated P0 to P11, p<0.05): 14%
proportion of fibers with cross-section surface between 400 and 800 μm^2 ([1]; Tibialis, versus SMA vehicle): significant increase
proportion of fibers with cross-section surface between 100 and 200 μm^2 ([1]; Tibialis, versus SMA vehicle, p<0.05): decreases significantly
number of squares crossed (open-field test) (SMA mice; P5, SMA mice (vehicle 10)): 11 squares
number of squares crossed (open-field test) (SMA mice; P7, SMA mice (vehicle 6), p<0.05): 10 squares
number of squares crossed (open-field test) (SMA mice; P9, SMA mice (vehicle 8), p=ns): 11 squares
pre-P11 mortality ([2]; 50 mg/kg daily gavage P0 to P11, versus vehicle, p<0.05): significantly reduces
loss of weight of the animals ([2]; 50 mg/kg daily gavage from birth to P11, versus vehicle): significantly limit
level of expression of SMN (SMN protein; [3]): no modification
level of SMN (SMN protein; spinal cord, SMA mice treated for 11 days): does not allow for the restoration
level of phosphorylation of ERK (pERK) (ERK; [3]): greatly decreased
level of pERK (ERK; spinal cord, SMA mice treated daily for 11 days): decreasing

— patent publication US12440500B2, “Phytoecdysones and the derivatives thereof for use in the treatment of neuromuscular diseases” (BIOPHYTIS, priority 2019, dated 2025)
